{"source": "patent US20100190199A1", "about": "“GPR30 ESTROGEN RECEPTOR IN BREAST AND OVARIAN CANCERS” (Rhode Island Hospital, priority 2008, published 2010)", "key": {"alpha and beta ERs": {"tested_on": "alpha and beta ERs", "settings": "cited from earlier work"}, "GPR30": {"target": "T1, GPR30 (Homo sapiens, UniProt Q99527)", "T1 construct": "human SKBR3 breast cancer cells (Erα^−, ERβ^−, GPR30^+); endogenous in cells", "T1 sequence (Q99527 whole entry)": "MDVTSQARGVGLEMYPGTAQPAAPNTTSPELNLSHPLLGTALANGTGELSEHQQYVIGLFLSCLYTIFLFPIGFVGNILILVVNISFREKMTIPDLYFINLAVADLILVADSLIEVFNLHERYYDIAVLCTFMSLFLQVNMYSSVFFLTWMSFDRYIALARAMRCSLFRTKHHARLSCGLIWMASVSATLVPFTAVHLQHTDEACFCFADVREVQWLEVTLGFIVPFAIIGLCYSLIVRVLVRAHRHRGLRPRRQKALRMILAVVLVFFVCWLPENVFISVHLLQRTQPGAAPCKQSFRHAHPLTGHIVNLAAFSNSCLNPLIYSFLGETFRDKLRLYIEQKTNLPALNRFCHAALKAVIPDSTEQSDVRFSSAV", "assay": "Estrogen-mediated fibronectin (FN) matrix assembly by human breast cancer cells", "type": "cell-based", "settings": "stimulation of human breast cancer cells"}, "EGFR": {"tested_on": "EGFR", "settings": "breast cancer cells; behave similarly to estradiol; cited from earlier work"}, "ER+ ovarian cancer": {"tested_on": "ER+ ovarian cancer", "settings": "ovarian cancer patients, second-line therapy, Phase II; cited from earlier work"}}, "data": [{"compound": "C[C@]12CC[C@@H]3c4ccc(O)cc4CC[C@H]3[C@@H]1CC[C@@H]2O", "note": "[17β-estradiol]", "values": [{"measurement": "Binding preference ERα versus ERβ", "setting": "alpha and beta ERs", "value": "binds equally well to both receptors"}]}, {"compound": "O=C(c1ccc(OCCN2CCCCC2)cc1)c1c(-c2ccc(O)cc2)sc2cc(O)ccc12", "note": "[raloxifene]", "values": [{"measurement": "Binding preference ERα versus ERβ", "setting": "alpha and beta ERs", "value": "bind preferentially to the alpha receptor"}]}, {"compound": "C[C@]12CC[C@@H]3c4ccc(O)cc4C[C@@H](CCCCCCCCC[S+]([O-])CCCC(F)(F)C(F)(F)F)[C@H]3[C@@H]1CC[C@@H]2O", "note": "(stereo partly drawn) [ICI 182,780]", "values": [{"measurement": "FN matrix assembly: recruitment of FN-engaged integrin α5β1 conformers to fibrillar adhesions and synthesis of FN fibrils", "setting": "GPR30", "value": "resulted in the recruitment of FN-engaged integrin α5β1 conformers to fibrillar adhesions and the synthesis of FN fibrils"}, {"measurement": "EGFR activation", "setting": "EGFR", "value": "capable of triggering EGFR activation in breast cancer cells"}]}, {"compound": "CC/C(=C(\\c1ccccc1)c1ccc(OCCN(C)C)cc1)c1ccccc1", "note": "[tamoxifen]", "values": [{"measurement": "EGFR activation", "setting": "EGFR", "value": "capable of triggering EGFR activation in breast cancer cells"}]}, {"compound": "N#Cc1ccc(C(c2ccc(C#N)cc2)n2cncn2)cc1", "note": "[Letrozole]", "values": [{"measurement": "Clinical response measured by ovarian cancer serum marker CA-125", "setting": "ER+ ovarian cancer", "value": "stable disease"}]}]}
